Source: ChEMBL document CHEMBL5604062, “ASAP - ZIKV NS2B-NS3 protease fluorescence dose response” (2024)
Values joined by “and” are separate entries in the source; they are usually repeats but may differ in a detail not shown here. Identical values can stand only once.

target: Nonstructural protein 3 (Zika virus, UniProt A0A024AXB9); test: Functional biochemical assay to identify treatments for viral infectious disease that targets Zika NS2B-NS3 protease. Utilizing a direct enzyme activity measurement method, reading the fluorescence intensity is used to characterize the relative potency of inhibitors as IC50.; set-up: species or system PRVABC59
Sequence (A0A024AXB9 whole entry): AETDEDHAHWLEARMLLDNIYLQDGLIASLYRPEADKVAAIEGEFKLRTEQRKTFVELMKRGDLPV

IC50	SMILES
> 99.5 µM	C[C@H](CC(=O)O)N(C)C(=O)c1cc(Cl)cc(NC(=O)OCc2ccccc2)c1
> 99.5 µM	Clc1ccc2[nH]cc(Cc3ccc(-c4nn[nH]n4)cc3)c2c1
> 99.5 µM	C[C@H](CC(=O)O)NC(=O)c1cc(Cl)cc(NC(=O)OCc2ccccc2)c1
> 99.5 µM	CCc1sc(C(=O)Nc2cccc(-c3nnn[nH]3)c2)cc1C
> 99.5 µM	O=C(O)CCc1ccc(NC(=O)c2cc(Cl)cc(C3CC3)c2)cc1
> 99.5 µM	CC(C)C[C@H](NC(=O)c1cc(Cl)cc(NC(=O)OCc2ccccc2)c1)c1nnn[nH]1
> 99.5 µM	O=C(Nc1cc(Cl)cc(C(=O)Nc2ccccc2[C@@H]2C[C@H]2C(=O)O)c1)OCc1ccccc1
11.4 µM	NCc1cc(C(=O)N[C@H]2CCCOC2)cc([C@@H]2C[C@H]2c2cc(Cl)cc(NC(=O)OCc3ccccc3)c2)c1
> 99.5 µM	Cc1c(C(=O)Nc2cccc(-c3nnn[nH]3)c2)sc2ccccc12
> 99.5 µM	O=C(Nc1cc(Cl)cc(C(=O)NC[C@H]2C[C@@H]2C(=O)O)c1)OCc1ccccc1
68.3 µM	O=C(Nc1cc(Cl)cc(C(=O)NCc2ccc(-c3nnn[nH]3)cc2)c1)OCc1ccccc1
27.8 µM	CC(C)(C)NC(=O)[C@H](Nc1cccc(-c2nn[nH]n2)c1)c1cc(Cl)cc(NC(=O)OCc2ccccc2)c1
> 99.5 µM	O=C(Nc1cc(Cl)cc(C(=O)N2CCC[C@H]2c2nnn[nH]2)c1)OCc1ccccc1
11.3 µM	C=CC[C@H](Nc1ccc(-c2nn[nH]n2)cc1)c1cc(Cl)cc(NC(=O)OCc2ccccc2)c1
> 99.5 µM	O=C(O)c1cccc(NC(=O)c2cc(Cl)cc3[nH]ncc23)c1
6.87 µM	O=C(Nc1cc(Cl)cc([C@H]2CN(Cc3ccccc3)C[C@@H]2c2cccc(-c3nn[nH]n3)c2)c1)OCc1ccccc1
48.5 µM	CCCNC(=O)[C@H](Nc1cccc(-c2nn[nH]n2)c1)c1cc(Cl)cc(NC(=O)OCc2ccccc2)c1
60.9 µM	CC(C)NC(=O)[C@H](Nc1cccc(-c2nn[nH]n2)c1)c1cc(Cl)cc(NC(=O)OCc2ccccc2)c1
> 99.5 µM	O=C(Nc1cc(Cl)cc(C(=O)N2CCC(c3nn[nH]n3)CC2)c1)OCc1ccccc1
43.3 µM	CS(=O)(=O)c1cc(CN)cc([C@@H]2C[C@H]2c2cc(Cl)cc(NC(=O)OCc3ccccc3)c2)c1
> 99.5 µM	CCc1[nH]c(-c2ccccc2)cc1C(=O)Nc1cccc(-c2nnn[nH]2)c1
11.9 µM	CN(C)C(=O)c1cc(CN)cc([C@@H]2C[C@H]2c2cc(Cl)cc(NC(=O)OCc3ccccc3)c2)c1
7.05 µM	CS(=O)(=O)NC(=O)c1cc(CN)cc(NC(=O)c2cc(Cl)cc(NC(=O)OCc3ccccc3)c2)c1
5.26 µM	CC(=Cc1cc(Cl)cc(NC(=O)OCc2ccccc2)c1)c1cccc(CN)c1

IC50	SMILES
> 99.5 µM	C#C[C@H](Nc1cccc(C(=O)O)c1)c1cc(Cl)cc2[nH]ncc12
> 99.5 µM	CCc1cc(C(=O)Nc2cccc(-c3nnn[nH]3)c2)ccc1Cl
> 99.5 µM	C[C@H](NC(=O)c1cc(Cl)cc(NC(=O)OCc2ccccc2)c1)C(=O)O
> 99.5 µM	O=C(Nc1ccc(-n2nn[nH]c2=O)cc1)c1cc(Cl)cc(C2CC2)c1
> 99.5 µM	Cc1c(C(=O)Nc2cccc(-c3nnn[nH]3)c2)n[nH]c1-c1ccc(Cl)cc1
> 99.5 µM	COC[C@H](NC(=O)c1cc(Cl)cc(NC(=O)OCc2ccccc2)c1)c1nnn[nH]1
> 99.5 µM	CC(C)[C@H](NC(=O)c1cc(Cl)cc(NC(=O)OCc2ccccc2)c1)C(=O)O
> 99.5 µM	CNC(=O)[C@H](Nc1ccc(-c2nnn[nH]2)cc1)c1cc(Cl)cc(C2CC2)c1
> 99.5 µM	O=C(Nc1cc(Cl)cc(C(=O)N2CCC[C@H](c3nnn[nH]3)C2)c1)OCc1ccccc1
12.8 µM	O=C(Nc1cc(Cl)cc([C@H](Nc2cccc(-c3nn[nH]n3)c2)C(=O)NCc2ccccc2)c1)OCc1ccccc1
7.69 µM	C=CC[C@H](Nc1cc(Cl)cc(NC(=O)OCc2ccccc2)c1)c1cccc(CN)c1
> 99.5 µM	O=C(Nc1cccc(-c2nnn[nH]2)c1)c1ccc(-c2cccnc2)s1
> 99.5 µM	O=C(Nc1cc(Cl)cc(C(=O)Nc2cccc3c2OC[C@H](C(=O)O)C3)c1)OCc1ccccc1
13.8 µM	NCc1cc(C(=O)N2CCOCC2)cc([C@@H]2C[C@H]2c2cc(Cl)cc(NC(=O)OCc3ccccc3)c2)c1
17.2 µM	CCOC(=O)[C@H]1[C@H](c2cccc(CN)c2)[C@H]1c1cc(Cl)cc(NC(=O)OCc2ccccc2)c1
> 99.5 µM	C=CC[C@H](Nc1cccc(C(=O)O)c1)c1cc(Cl)cc2[nH]ncc12
> 99.5 µM	Clc1ccc2[nH]cc(Cc3cccc(-c4nn[nH]n4)c3)c2c1
9.66 µM	C=CC[C@H](Nc1cc(Cl)cc(NC(=O)OCc2ccccc2)c1)c1ccc(-c2nn[nH]n2)cc1
31.1 µM	CC(C)CNC(=O)[C@H](Nc1cccc(-c2nn[nH]n2)c1)c1cc(Cl)cc(NC(=O)OCc2ccccc2)c1
38.3 µM	O=C(Nc1cc(Cl)cc([C@H](C#CCO)Nc2cccc(-c3nn[nH]n3)c2)c1)OCc1ccccc1
> 99.5 µM	O=C(Nc1cc(Cl)cc(C(=O)NCC[C@H]2C[C@@H]2C(=O)O)c1)OCc1ccccc1
69.2 µM	Cc1c(C(=O)Nc2cc(CCCN)ccc2F)cc(C2CC2)n1C
> 99.5 µM	Clc1cc(/C=C/c2cccc(-c3nn[nH]n3)c2)c2cn[nH]c2c1
24.6 µM and 27.6 µM and 24.8 µM	N#C[C@H](Nc1cccc(-c2nn[nH]n2)c1)c1cc(Cl)cc(NC(=O)OCc2ccccc2)c1

IC50	SMILES
< 50 nM (2×) and 139 nM and 164 nM	O=C(Nc1ccc2c(c1)CNC2)c1cc(Cl)cc2[nH]ncc12
> 99.5 µM	CCCc1sc(C(=O)Nc2cccc(-c3nnn[nH]3)c2)cc1CC
> 99.5 µM	C=CC[C@H](Nc1cccc(-c2nn[nH]n2)c1)c1cc(Cl)cc2[nH]ncc12
> 99.5 µM	Cc1c(C(=O)Nc2ccc([C@@H](C)N)cc2)cc(C2CC2)n1C
> 99.5 µM	CNC(=O)[C@H](Nc1cccc(-c2nn[nH]n2)c1)c1cc(Cl)cc(NC(=O)OCc2ccccc2)c1
> 99.5 µM	O=C(O)CCCc1ccc(NC(=O)c2cc(Cl)cc(NC(=O)OCc3ccccc3)c2)cc1
> 99.5 µM	O=C(Nc1cc(Cl)cc(C(=O)Nc2cncc(C(=O)O)c2)c1)OCc1ccccc1
2.53 µM	NCCc1ccc([C@H]2C[C@@H]2c2cc(Cl)cc(NC(=O)OCc3ccccc3)c2)cc1
9.2 µM	CNC(=O)[C@H](Nc1cccc(-c2nn[nH]n2)c1)c1cc(Cl)cc2[nH]ncc12
51.9 µM	NCc1ccc2nc(-c3cc(Cl)cc(NC(=O)OCc4ccccc4)c3)c(CCCO)cc2c1
> 99.5 µM	Clc1cc(CCc2cccc(-c3nn[nH]n3)c2)c2cn[nH]c2c1
7.58 µM	O=C(Nc1cc(Cl)cc(-c2ccc3[nH]c(C(=O)O)cc3c2)c1)OCc1ccccc1
> 99.5 µM	O=C(Nc1ccc(-c2nnn[nH]2)cc1)c1cc(Cl)cc(C2CC2)c1
45.2 µM	O=C(O)Cn1ncc2cc(-c3cc(Cl)cc(NC(=O)OCc4ccccc4)c3)ccc21
> 99.5 µM	O=C(Nc1cc(Cl)cc(S(=O)(=O)Nc2cccc(-c3nn[nH]n3)c2)c1)OCc1ccccc1
> 99.5 µM	NCc1cc(C(=O)O)cc([C@@H]2C[C@H]2c2cc(Cl)cc(NC(=O)OCc3ccccc3)c2)c1
> 99.5 µM	CCc1nc(C)c(C(=O)Nc2cccc(-c3nnn[nH]3)c2)s1
> 99.5 µM	C[C@H](C(=O)O)c1cccc(NC(=O)c2cc(Cl)cc(NC(=O)OCc3ccccc3)c2)c1
2.64 µM	O=C(Nc1cc(Cl)cc([C@H]2C[C@@H]2c2cccc(C3CCNCC3)c2)c1)OCc1ccccc1
> 99.5 µM	C=CC[C@H](Nc1cc(CN)ccn1)c1cc(Cl)cc(NC(=O)OCc2ccccc2)c1
> 99.5 µM	CNC(=O)[C@H](Nc1cccc(C(=O)O)c1)c1cc(Cl)cc2[nH]ncc12
22.7 µM	O=C(Nc1cc(Cl)cc([C@H](C#CCO)Nc2ccc(-c3nn[nH]n3)cc2)c1)OCc1ccccc1
22.9 µM	C#C[C@H](Nc1cccc(-c2nn[nH]n2)c1)c1cc(Cl)cc(NC(=O)OCc2ccccc2)c1
> 99.5 µM	Cc1c(C(=O)Nc2cccc(CN)c2)cc(C2CCC2)n1C

IC50	SMILES
> 99.5 µM	Cc1c(C(=O)Nc2ccc(CN)cc2)cc(C2CC2)n1C
> 99.5 µM	CN1C[C@H](c2cccc(CN)c2)[C@@H](c2cc(Cl)cc(NC(=O)OCc3ccccc3)c2)C1
> 99.5 µM	O=C(Nc1cc(Cl)cc(C(=O)N[C@H]2CCCC[C@@H]2C(=O)O)c1)OCc1ccccc1
> 99.5 µM	Cc1c(C(=O)Nc2cc(CN)ccc2F)cc(C2CC2)n1C
> 99.5 µM	CNC(=O)[C@H](Nc1cc(Cl)cc(NC(=O)OCc2ccccc2)c1)c1cccc(-c2nn[nH]n2)c1
27.4 µM	NCc1cccc([C@H](CCCO)Nc2cc(Cl)cc(NC(=O)OCc3ccccc3)c2)c1
69 µM	O=C(Nc1cc(Cl)cc(C(=O)Nc2cccc(C3(C(=O)O)CCC3)c2)c1)OCc1ccccc1
41.5 µM	O=C(Nc1cc(Cl)cc(C(=O)Nc2cc(-c3nnn[nH]3)ccc2F)c1)OCc1ccccc1
> 99.5 µM	CS(=O)(=O)NC(=O)c1cc(CN)cc([C@@H]2C[C@H]2c2cc(Cl)cc(NC(=O)OCc3ccccc3)c2)c1
19.3 µM	N#C[C@H](Nc1ccc(-c2nn[nH]n2)cc1)c1cc(Cl)cc(NC(=O)OCc2ccccc2)c1
> 99.5 µM	CCc1cc(C(=O)Nc2cccc(-c3nnn[nH]3)c2)sc1C
84.3 µM	O=C(O)CCCc1cccc(NC(=O)c2cc(Cl)cc(NC(=O)OCc3ccccc3)c2)c1
9.32 µM	C=CC[C@H](Nc1cccc(-c2nn[nH]n2)c1)c1cc(Cl)cc(NC(=O)OCc2ccccc2)c1
> 99.5 µM	O=C(Nc1cc(Cl)cc(C(=O)N[C@H](c2nn[nH]n2)C2CCNCC2)c1)OCc1ccccc1
> 99.5 µM	O=C(O)CCc1cccc(NC(=O)c2cc(Cl)cc(NC(=O)OCc3ccccc3)c2)c1
62.3 µM	NCc1cccc(N[C@H](CCCO)c2cc(Cl)cc(NC(=O)OCc3ccccc3)c2)c1
> 99.5 µM	COC(=O)c1cc(Cl)cc(S(=O)(=O)Nc2cccc(-c3nnn[nH]3)c2)c1F
16.8 µM	N#C[C@H](Nc1cc(Cl)cc(NC(=O)OCc2ccccc2)c1)c1ccc(-c2nn[nH]n2)cc1
> 99.5 µM	CNC(=O)C[C@H](Nc1cccc(F)n1)c1cc(Cl)cc(Br)c1
> 99.5 µM	COc1c(C(N)=O)cc(Cl)cc1S(=O)(=O)Nc1cccc(-c2nnn[nH]2)c1
44.3 µM	O=C(Nc1cc(Cl)cc(C(=O)Nc2ccc([C@@H]3C[C@H]3C(=O)O)cc2)c1)OCc1ccccc1
> 99.5 µM	CCc1cc(C(=O)Nc2cccc(-c3nnn[nH]3)c2)nn1-c1ccccc1
